Assay results as given in patent US20220340875A1, “METHODS OF CULTURING AND/OR EXPANDING STEM CELLS AND/OR LINEAGE COMMITTED PROGENITOR CELLS USING AMIDO COMPOUNDS” (IDEAYA BIOSCIENCES, INC., priority 2018, published 2022).

The compounds below were run against T1, hAhR (Homo sapiens, UniProt P35869) (assay: AhR DRE-luciferase reporter transcriptional assay, antagonist mode (TCDD-induced)). Details: HEPG2 DRE-Luc cells, 3 nM TCDD, 24 hour incubation, relative IC50.
T1 construct: Stably integrated DRE-luciferase cell lines were generated by transducing the both cell lines with Cignal XRE luciferase reporter (Qiagen) lentiviral particles; endogenous in cells
T1 sequence (P35869 11-848): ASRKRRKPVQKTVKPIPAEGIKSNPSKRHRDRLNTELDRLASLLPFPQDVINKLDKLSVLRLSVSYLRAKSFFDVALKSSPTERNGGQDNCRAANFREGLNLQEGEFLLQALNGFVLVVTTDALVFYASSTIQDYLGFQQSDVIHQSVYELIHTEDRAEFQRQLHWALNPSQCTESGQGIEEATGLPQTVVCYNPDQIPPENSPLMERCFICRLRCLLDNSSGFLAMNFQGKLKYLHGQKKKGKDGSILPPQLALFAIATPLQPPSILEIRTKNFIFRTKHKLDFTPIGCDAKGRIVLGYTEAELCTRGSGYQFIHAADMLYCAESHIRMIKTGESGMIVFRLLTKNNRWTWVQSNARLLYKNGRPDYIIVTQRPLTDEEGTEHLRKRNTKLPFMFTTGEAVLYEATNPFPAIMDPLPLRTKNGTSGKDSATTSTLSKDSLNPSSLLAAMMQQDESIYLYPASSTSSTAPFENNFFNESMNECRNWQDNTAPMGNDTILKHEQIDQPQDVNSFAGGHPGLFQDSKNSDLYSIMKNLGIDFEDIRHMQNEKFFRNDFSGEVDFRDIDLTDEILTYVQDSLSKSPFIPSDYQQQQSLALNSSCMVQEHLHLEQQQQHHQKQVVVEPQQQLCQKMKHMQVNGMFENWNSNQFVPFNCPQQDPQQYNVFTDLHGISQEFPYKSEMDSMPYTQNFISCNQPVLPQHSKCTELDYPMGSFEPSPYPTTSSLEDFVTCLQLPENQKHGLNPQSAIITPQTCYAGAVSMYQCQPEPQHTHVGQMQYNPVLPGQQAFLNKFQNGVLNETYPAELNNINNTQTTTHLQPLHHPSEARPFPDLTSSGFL
Format: cell-based
Outline: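 HepG2 cells carrying a stably integrated DRE-luciferase reporter, in OptiMEM with 0.5% FBS; semi-log compound doses added with 3 nM TCDD, 24 h incubation, firefly luciferase read-out. Percent maximal activity normalised between vehicle ± TCDD; relative IC50 taken as half-reduction between curve plateaus.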
`C#Cc1ccc2nc(-c3ccc(NC(=O)c4ccnn4C)c(C)c3)ccc2c1` [Example 072, N-(4-(6-ethynylquinolin-2-yl)-2-methylphenyl)-1-methyl-1H-pyrazole-5-carboxamide] was tested, and the IC50 was 200 to 500 nM.
`Cc1cc(-c2ccc3cc(Cl)ccc3n2)ccc1NC(=O)c1ccnn1C` [Example 065, N-(4-(6-Chloroquinolin-2-yl)-2-methylphenyl)-1-methyl-1H-pyrazole-5-carboxamide] was tested, and the IC50 was 200 to 500 nM.
In the case of `Cc1cc(-c2ccc3cc([N+](=O)[O-])ccc3n2)ccc1NC(=O)c1ccnn1C` [Example 076, 1-methyl-N-(2-methyl-4-(6-nitroquinolin-2-yl)phenyl)-1H-pyrazole-5-carboxamide], the IC50 is reported as < 200 nM.
For `Cc1cc(-c2ccc3cc(F)cc(C(C)C)c3n2)ccc1NC(=O)c1ccnn1C` [Example 055, N-(4-(6-fluoro-8-isopropylquinolin-2-yl)-2-methylphenyl)-1-methyl-1H-pyrazole-5-carboxamide], the IC50 was 1000 to 10000 nM.
In the case of `Cn1nccc1C(=O)Nc1ccc(-c2ccc3cc(C(F)(F)F)ccc3n2)cc1F` [Example 077, N-(2-fluoro-4-(6-(trifluoromethyl)quinolin-2-yl)phenyl)-1-methyl-1H-pyrazole-5-carboxamide], the IC50 is reported as 200 to 500 nM.
In the case of `Cc1cc(-c2ncc3nc(C(F)(F)F)cc(C)c3n2)ccc1NC(=O)c1ccnn1C` [Example 147, 1-methyl-N-(2-methyl-4-(8-methyl-6-(trifluoromethyl)pyrido[3,2-d]pyrimidin-2-yl)phenyl)-1H-pyrazole-5-carboxamide], the IC50 is reported as < 200 nM.
`Cc1cc(-c2ncc3nc(C(F)(F)F)cc(C)c3n2)ccc1N(C)C(=O)c1cc(C(N)=O)nn1CC(N)=O` [Example 196, 1-(2-amino-2-oxoethyl)-N5-methyl-N5-(2-methyl-4-(8-methyl-6-(trifluoromethyl)pyrido[3,2-d]pyrimidin-2-yl)phenyl)-1H-pyrazole-3,5-dicarboxamide] gave an IC50 of 1000 to 10000 nM.
With `Cc1cc(-c2ccc3cncc(Cl)c3n2)ccc1NC(=O)c1ccnn1C` [Example 104, N-(4-(8-chloro-1,6-naphthyridin-2-yl)-2-methylphenyl)-1-methyl-1H-pyrazole-5-carboxamide] the IC50 was < 200 nM.
Work on `Cc1cc(C(F)(F)F)nc2cnc(-c3ccc(NC(=O)C4CCOCC4)c(F)c3)nc12` [Example 186, N-(2-fluoro-4-(8-methyl-6-(trifluoromethyl)pyrido[3,2-d]pyrimidin-2-yl)phenyl)tetrahydro-2H-pyran-4-carboxamide] yielded an IC50 of 1000 to 10000 nM.
In the case of `Cc1cc(-c2ccc3cc(F)cc(Br)c3n2)ccc1NC(=O)c1ccnn1C` [Example 051, N-(4-(8-bromo-6-fluoroquinolin-2-yl)-2-methylphenyl)-1-methyl-1H-pyrazole-5-carboxamide], the IC50 is reported as < 200 nM.
In the case of `Cc1cc(-c2ncc3nc(C(F)(F)F)cc(C)c3n2)ccc1N(C)C(=O)c1cc(C(=O)O)nn1CC(N)=O` [Example 195, 1-(2-amino-2-oxoethyl)-5-(methyl(2-methyl-4-(8-methyl-6-(trifluoro-methyl)pyrido[3,2-d]pyrimidin-2-yl)phenyl)carbamoyl)-1H-pyrazole-3-carboxylic acid], the IC50 is reported as 1000 to 10000 nM.
`Cc1cc(-c2ccc3cccc(C)c3n2)ccc1NC(=O)OC(C)(C)C` [Example 017, tert-butyl (2-methyl-4-(8-methylquinolin-2-yl)phenyl)carbamate] was tested, and the IC50 was 1000 to 10000 nM.
`Cc1cc(-c2ccc3c(ccn3C)c2)ccc1NC(=O)c1ccnn1C` [Example 083, 1-methyl-N-(2-methyl-4-(1-methyl-1H-indol-5-yl)phenyl)-1H-pyrazole-5-carboxamide] showed an IC50 of 500 to 1000 nM.
With `Cc1cc(-c2nc(N)c3nc(C(F)(F)F)cc(C)c3n2)ccc1NC(=O)c1ccnn1C` [Example 153, N-(4-(4-amino-8-methyl-6-(trifluoromethyl)pyrido[3,2-d]pyrimidin-2-yl)-2-methylphenyl)-1-methyl-1H-pyrazole-5-carboxamide] the IC50 was < 200 nM.
For `Cc1cc(-c2ncc3cc(C(F)(F)F)ccc3n2)ccc1N(C)C(=O)c1ccncc1` [Example 116, N-methyl-N-(2-methyl-4-(6-(trifluoromethyl)quinazolin-2-yl)phenyl)isonicotinamide], the IC50 was < 200 nM.
Compound `Cc1cc(-c2ccc3cc(C(N)=O)ccc3n2)ccc1NC(=O)c1ccnn1C` [Example 074, 2-(3-methyl-4-(1-methyl-1H-pyrazole-5-carboxamido)phenyl)quinoline-6-carboxamide] has an IC50 of 1000 to 10000 nM.
In the case of `CCN(C(=O)c1ccnn1C)c1ccc(-c2ccc3cc(C(F)(F)F)ccc3n2)cc1C` [Example 004, N-Ethyl-1-methyl-N-(2-methyl-4-(6-(trifluoromethyl)quinolin-2-yl)phenyl)-1H-pyrazole-5-carboxamide], the IC50 is reported as < 200 nM.
With `Cc1cc(-c2ccc3nc(C(F)(F)F)ncc3n2)ccc1NC(=O)c1ccnn1C` [Example 139, 1-methyl-N-(2-methyl-4-(2-(trifluoromethyl)pyrido[3,2-d]pyrimidin-6-yl)phenyl)-1H-pyrazole-5-carboxamide] the IC50 was 500 to 1000 nM.
`Cc1cc(-c2ccc3nc(C(F)(F)F)cc(C)c3n2)ccc1N(C)C(=O)c1ccnn1CCO` [Example 223, 1-(2-hydroxyethyl)-N-methyl-N-[2-methyl-4-[8-methyl-6-(trifluoromethyl)-1,5-naphthyridin-2-yl]phenyl]-1H-pyrazole-5-carboxamide] was tested, and the IC50 was < 200 nM.
`Cc1cc(-c2ncc3cc(C(F)(F)F)ccc3n2)ccc1N(C)C(=O)c1ccnn1C` [Example 140, N,1-Dimethyl-N-(2-methyl-4-(6-(trifluoromethyl)quinazolin-2-yl)phenyl)-1H-pyrazole-5-carboxamide] was tested, and the IC50 was < 200 nM.
Compound `Cc1cc(-c2ccc3cc(N4CCOCC4)ccc3n2)ccc1NC(=O)c1ccnn1C` [Example 071, 1-methyl-N-(2-methyl-4-(6-morpholinoquinolin-2-yl)phenyl)-1H-pyrazole-5-carboxamide] has an IC50 of 200 to 500 nM.
For `COC(=O)N(C)c1ccc(-c2ncc3cc(C(F)(F)F)ccc3n2)cc1C` [Example 128, methyl methyl(2-methyl-4-(6-(trifluoromethyl)quinazolin-2-yl)phenyl)carbamate], the IC50 was < 200 nM.
Compound `Cc1cc(NC(=O)c2c(C)cnn2C)c(F)cc1-c1ccc2cc(C(F)(F)F)ccc2n1` [Example 207, N-(2-fluoro-5-methyl-4-(6-(trifluoromethyl)quinolin-2-yl)phenyl)-1,4-dimethyl-1H-pyrazole-5-carboxamide] has an IC50 of 200 to 500 nM.
For `Cn1nccc1C(=O)Nc1ccc(-c2ncc3cc(C(F)(F)F)ccc3n2)cc1` [Example 220, 1-methyl-N-(4-(6-(trifluoromethyl)quinazolin-2-yl)phenyl)-1H-pyrazole-5-carboxamide], the IC50 was 1000 to 10000 nM.
In the case of `Cc1cc(-c2ncc3cc(C(F)(F)F)ccc3n2)ccc1NC(=O)c1ncncc1C` [Example 123, 5-methyl-N-(2-methyl-4-(6-(trifluoromethyl)quinazolin-2-yl)phenyl)pyrimidine-4-carboxamide], the IC50 is reported as 500 to 1000 nM.
With `CC(=O)N(C)c1ccc(-c2ncc3cc(C(F)(F)F)ccc3n2)cc1C` [Example 130, N-methyl-N-(2-methyl-4-(6-(trifluoromethyl)quinazolin-2-yl)phenyl)acetamide] the IC50 was < 200 nM.
In the case of `Cc1cc(NC(=O)c2ccnn2C)ncc1-c1ccc2cc(F)ccc2n1` [Example 043, N-(5-(6-fluoroquinolin-2-yl)-4-methylpyridin-2-yl)-1-methyl-1H-pyrazole-5-carboxamide], the IC50 is reported as 1000 to 10000 nM.
`Cc1cc(-c2ccc3cc(C(F)(F)F)ccc3n2)ccc1NC(=O)c1ccnn1C` [Example 001, 1-methyl-N-(2-methyl-4-(6-(trifluoromethyl)quinolin-2-yl)phenyl)-1H-pyrazole-5-carboxamide] gave an IC50 of 200 to 500 nM.
`[2H]C([2H])([2H])N(C(=O)c1ccnn1C)c1ccc(-c2ccc3cc(C(F)(F)F)ccc3n2)cc1C` [Example 212, 1-methyl-N-(methyl-d3)-N-(2-methyl-4-(6-(trifluoromethyl)quinolin-2-yl)phenyl)-1H-pyrazole-5-carboxamide] was tested, and the IC50 was < 200 nM.
`Cc1cc(-c2ncc3nc(C(F)(F)F)cc(C)c3n2)ccc1N(C)C(=O)c1ccnn1C` [Example 148, N,1-Dimethyl-N-(2-methyl-4-(8-methyl-6-(trifluoromethyl)pyrido[3,2-d]pyrimidin-2-yl)phenyl)-1H-pyrazole-5-carboxamide] was tested, and the IC50 was < 200 nM.
With `Cc1cc(-c2ccc3cc(F)ccc3n2)cnc1NC(=O)c1ccnn1C` [Example 042, N-(5-(6-fluoroquinolin-2-yl)-3-methylpyridin-2-yl)-1-methyl-1H-pyrazole-5-carboxamide] the IC50 was 500 to 1000 nM.
For `Cc1cc(-c2ccc3nc(C(F)(F)F)cc(C)c3n2)ccc1N(C)C(=O)c1ccnn1C` [Example 106, N,1-dimethyl-N-(2-methyl-4-(8-methyl-6-(trifluoromethyl)-1,5-naphthyridin-2-yl)phenyl)-1H-pyrazole-5-carboxamide], the IC50 was < 200 nM.
